Results reported in patent US8987195B2 (priority 2012, dated 2015).
Like-named read-outs stand apart in the source and are kept apart here.

How the values were obtained:
[1] = molecular target: HCV NS3/4A protease genotype 1b (Hepatitis C virus genotype 1b, UniProt P26663); experiment: HCV NS3/4A protease time-resolved fluorescence (TRF) assay, Ki against genotype 1b; assay type: biochemical; conditions: IC50 [gt-1b] (nM), NS3/4A genotype 1b, enzyme 0.2 nM
Summary of the method: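 Ki values come from IC50 fits corrected for substrate concentration and KM. The time-resolved fluorescence protease reaction used 25 nM peptide substrate, 2.5 h, room temperature, pH 7.5 HEPES buffer, after 30 min enzyme–inhibitor preincubation.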

HCV genotype 1b replicon = experiment: HCV replicon assay, genotype 1b replicon EC50; assay type: cell-based, Hepatitis C virus; conditions: Hepatitis C virus, genotype 1b replicon, read-out: EC50 [gt-1b]
Summary of the method: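 Compound dilution series incubated 24-48 h, G418 absent, with HCV genotype 1b replicon cell lines kept under G418 selection beforehand. Luciferase signal or replicon RNA, by ^32P hybridization/protection or TaqMan normalized to cyclophilin A, was measured after washing and lysis. Four-parameter fitting against DMSO control gave EC50.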

Chain of HCV NS3/4A protease genotype 1b (P26663 1027-1657): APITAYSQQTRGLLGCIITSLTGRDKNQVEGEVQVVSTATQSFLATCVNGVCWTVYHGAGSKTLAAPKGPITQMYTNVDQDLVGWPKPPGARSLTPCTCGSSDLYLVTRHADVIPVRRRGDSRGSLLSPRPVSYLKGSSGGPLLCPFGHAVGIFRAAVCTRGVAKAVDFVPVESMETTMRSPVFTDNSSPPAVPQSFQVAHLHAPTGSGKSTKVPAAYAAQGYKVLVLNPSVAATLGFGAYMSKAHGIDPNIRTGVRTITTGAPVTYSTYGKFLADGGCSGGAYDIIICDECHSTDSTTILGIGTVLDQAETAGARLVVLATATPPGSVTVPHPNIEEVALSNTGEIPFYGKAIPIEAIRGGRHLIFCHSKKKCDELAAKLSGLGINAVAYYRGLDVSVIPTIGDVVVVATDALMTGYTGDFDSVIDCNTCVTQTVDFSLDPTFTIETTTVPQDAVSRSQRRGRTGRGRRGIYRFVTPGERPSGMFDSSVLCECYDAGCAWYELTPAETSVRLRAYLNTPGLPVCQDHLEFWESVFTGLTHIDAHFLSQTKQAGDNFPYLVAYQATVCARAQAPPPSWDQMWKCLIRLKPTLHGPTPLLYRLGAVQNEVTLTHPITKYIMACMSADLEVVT
Chain of HCV NS3/4A protease genotype 1b (P26663 1658-1711): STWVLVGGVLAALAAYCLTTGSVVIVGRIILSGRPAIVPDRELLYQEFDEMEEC

| SMILES | IC50 [1] | EC50 (HCV genotype 1b replicon) | IC50 ([1]; K+ salt) | EC50 (HCV genotype 1b replicon; K+ salt) |
| --- | --- | --- | --- | --- |
| CCOC(=O)N[C@H]1CCCCC/C=C\[C@@H]2C[C@@]2(C(=O)NS(=O)(=O)C2(C)CC2)NC(=O)[C@@H]2C[C@]3(CCc4c(c(C5CC5)nc5cc(OC)ccc45)O3)CN2C1=O [Example 138, ethyl [(2R,6S,12Z,13aS,14aR,16aS)-5′-cyclopropyl-8′-methoxy-14a-{[(1-methylcyclopropyl)sulfonyl]carbamoyl}-5,16-dioxo-1,1′,2′,5,6,7,8,9,10,11,13a,14,14a,15,16,16a-hexadecahydrospiro[cyclopropa[e]pyrrolo[1,2-a][1,4]diazacyclopentadecine-2,3′-pyrano[2,3-c]quinolin]-6-yl]carbamate] | 0.043 nM | 2.51 nM |  |  |
| COC(=O)N[C@H]1CCCCC/C=C\[C@@H]2C[C@@]2(C(=O)NS(=O)(=O)C2(C)CC2)NC(=O)[C@@H]2C[C@]3(CCc4c(c(C5CC5)nc5cc(OC)ccc45)O3)CN2C1=O [Example 139, methyl [(2R,6S,12Z,13aS,14aR,16aS)-5′-cyclopropyl-8′-methoxy-14a-{[(1-methylcyclopropyl)sulfonyl]carbamoyl}-5,16-dioxo-1,1′,2′,5,6,7,8,9,10,11,13a,14,14a,15,16,16a-hexadecahydrospiro[cyclopropa[e]pyrrolo[1,2-a][1,4]diazacyclopentadecine-2,3′-pyrano[2,3-c]quinolin]-6-yl]carbamate] | 0.127 nM | 8.09 nM |  |  |
| COc1ccc2nc(C)c3c(c2c1)CC[C@]1(C[C@H]2C(=O)N[C@]4(C(=O)NS(=O)(=O)C5(C)CC5)C[C@H]4/C=C\CCCCC[C@H](NC(=O)OC4(C)CC4)C(=O)N2C1)O3 [Example 141, 1-methylcyclopropyl [(2R,6S,12Z,13aS,14aR,16aS)-9′-methoxy-5′-methyl-14a-{[(1-methylcyclopropyl)sulfonyl]carbamoyl}-5,16-dioxo-1,1′,2′,5,6,7,8,9,10,11,13a,14,14a,15,16,16a-hexadecahydrospiro[cyclopropa[e]pyrrolo[1,2-a][1,4]diazacyclopentadecine-2,3′-pyrano[2,3-c]quinolin]-6-yl]carbamate] | 0.003 nM | 1.47 nM |  |  |
| COc1ccc2nc(C)c3c(c2c1)CC[C@]1(C[C@H]2C(=O)N[C@]4(C(=O)NS(=O)(=O)C5(C)CC5)C[C@H]4/C=C\CCCCC[C@H](NC(=O)OCC(C)C)C(=O)N2C1)O3 [Example 142, 2-methylpropyl [(2R,6S,12Z,13aS,14aR,16aS)-9′-methoxy-5′-methyl-14a-{[(1-methylcyclopropyl)sulfonyl]carbamoyl}-5,16-dioxo-1,1′,2′,5,6,7,8,9,10,11,13a,14,14a,15,16,16a-hexadecahydrospiro[cyclopropa[e]pyrrolo[1,2-a][1,4]diazacyclopentadecine-2,3′-pyrano[2,3-c]quinolin]-6-yl]carbamate] | 0.004 nM | 1.14 nM |  |  |
| Cc1nc2ccccc2c2c1O[C@]1(CC2)C[C@H]2C(=O)N[C@]3(C(=O)NS(=O)(=O)C4(C)CC4)C[C@H]3/C=C\CCCCC[C@H](NC(=O)OC3CCCCC3)C(=O)N2C1 [Example 143, cyclohexyl [(2R,6S,12Z,13aS,14aR,16aS)-5′-methyl-14a-{[(1-methylcyclopropyl)sulfonyl]carbamoyl}-5,16-dioxo-1,1′,2′,5,6,7,8,9,10,11,13a,14,14a,15,16,16a-hexadecahydrospiro[cyclopropa[e]pyrrolo[1,2-a][1,4]diazacyclopentadecine-2,3′-pyrano[2,3-c]quinolin]-6-yl]carbamate] |  |  | 0.009 nM | 1.18 nM |
| CC(C)COC(=O)N[C@H]1CCCCC/C=C\[C@@H]2C[C@@]2(C(=O)NS(=O)(=O)C2(C)CC2)NC(=O)[C@@H]2C[C@]3(CCc4c(c(C5CC5)nc5ccc(F)cc45)O3)CN2C1=O [Example 144, 2-methylpropyl [(2R,6S,12Z,13aS,14aR,16aS)-5′-cyclopropyl-9′-fluoro-14a-{[(1-methylcyclopropyl)sulfonyl]carbamoyl}-5,16-dioxo-1,1′,2′,5,6,7,8,9,10,11,13a,14,14a,15,16,16a-hexadecahydrospiro[cyclopropa[e]pyrrolo[1,2-a][1,4]diazacyclopentadecine-2,3′-pyrano[2,3-c]quinolin]-6-yl]carbamate] | 0.007 nM | 1.02 nM |  |  |
| CC1(S(=O)(=O)NC(=O)[C@@]23C[C@H]2/C=C\CCCCC[C@H](NC(=O)OC2CCCC2)C(=O)N2C[C@@]4(CCc5c(c(C6CC6)nc6ccc(F)cc56)O4)C[C@H]2C(=O)N3)CC1 [Example 145, cyclopentyl [(2R,6S,12Z,13aS,14aR,16aS)-5′-cyclopropyl-9′-fluoro-14a-{[(1-methylcyclopropyl)sulfonyl]carbamoyl}-5,16-dioxo-1,1′,2′,5,6,7,8,9,10,11,13a,14,14a,15,16,16a-hexadecahydrospiro[cyclopropa[e]pyrrolo[1,2-a][1,4]diazacyclopentadecine-2,3′-pyrano[2,3-c]quinolin]-6-yl]carbamate] | 0.006 nM | 1.16 nM |  |  |
| Cc1nc2ccc(OC(F)(F)F)cc2c2c1O[C@]1(CC2)C[C@H]2C(=O)N[C@]3(C(=O)NS(=O)(=O)C4(C)CC4)C[C@H]3/C=C\CCCCC[C@H](NC(=O)OCC3CCCC3)C(=O)N2C1 [Example 146, cyclopentylmethyl [(2R,6S,12Z,13aS,14aR,16aS)-5′-methyl-14a-{[(1-methylcyclopropyl)sulfonyl]carbamoyl}-5,16-dioxo-9′-(trifluoromethoxy)-1,1′,2′,5,6,7,8,9,10,11,13a,14,14a,15,16,16a-hexadecahydrospiro[cyclopropa[e]pyrrolo[1,2-a][1,4]diazacyclopentadecine-2,3′-pyrano[2,3-c]quinolin]-6-yl]carbamate] | 0.03 nM | 11.8 nM |  |  |
| Cc1nc2c(F)cccc2c2c1O[C@]1(CC2)C[C@H]2C(=O)N[C@]3(C(=O)NS(=O)(=O)C4(C)CC4)C[C@H]3/C=C\CCCCC[C@H](NC(=O)OCC(C)C)C(=O)N2C1 [Example 147, 2-methylpropyl [(2R,6S,12Z,13aS,14aR,16aS)-7′-fluoro-5′-methyl-14a-{[(1-methylcyclopropyl)sulfonyl]carbamoyl}-5,16-dioxo-1,1′,2′,5,6,7,8,9,10,11,13a,14,14a,15,16,16a-hexadecahydrospiro[cyclopropa[e]pyrrolo[1,2-a][1,4]diazacyclopentadecine-2,3′-pyrano[2,3-c]quinolin]-6-yl]carbamate] | 0.01 nM | 1.05 nM |  |  |
| CC1(S(=O)(=O)NC(=O)[C@@]23C[C@H]2/C=C\CCCCC[C@H](NC(=O)OC2CCCC2)C(=O)N2C[C@@]4(CCc5c(c(C(F)(F)F)nc6ccccc56)O4)C[C@H]2C(=O)N3)CC1 [Example 148, cyclopentyl [(2R,6S,12Z,13aS,14aR,16aS)-14a-{[(1-methylcyclopropyl)sulfonyl]carbamoyl}-5,16-dioxo-5′-(trifluoromethyl)-1,1′,2′,5,6,7,8,9,10,11,13a,14,14a,15,16,16a-hexadecahydrospiro[cyclopropa[e]pyrrolo[1,2-a][1,4]diazacyclopentadecine-2,3′-pyrano[2,3-c]quinolin]-6-yl]carbamate] |  |  | 0.011 nM | 0.195 nM |
| Cc1nc2ccccc2c2c1O[C@@]1(C[C@H]3C(=O)N[C@]4(C(=O)NS(=O)(=O)C5(C)CC5)C[C@H]4/C=C\CCCCC[C@H](NC(=O)OC4CCCC4)C(=O)N3C1)CC2(F)F [Example 149, cyclopentyl [(2S,6S,12Z,13aS,14aR,16aS)-1′,1′-difluoro-5′-methyl-14a-{[(1-methylcyclopropyl)sulfonyl]carbamoyl}-5,16-dioxo-1,1′,2′,5,6,7,8,9,10,11,13a,14,14a,15,16,16a-hexadecahydrospiro[cyclopropa[e]pyrrolo[1,2-a][1,4]diazacyclopentadecine-2,3′-pyrano[2,3-c]quinolin]-6-yl]carbamate] | 0.022 nM | 0.195 nM |  |  |
| CC1(S(=O)(=O)NC(=O)[C@@]23C[C@H]2/C=C\CCCCC[C@H](NC(=O)OC2CCCC2)C(=O)N2C[C@@]4(CCc5c(c(C6CC6)nc6c(F)cccc56)O4)C[C@H]2C(=O)N3)CC1 [Example 150, cyclopentyl [(2R,6S,12Z,13aS,14aR,16aS)-5′-cyclopropyl-7′-fluoro-14a-{[(1-methylcyclopropyl)sulfonyl]carbamoyl}-5,16-dioxo-1,1′,2′,5,6,7,8,9,10,11,13a,14,14a,15,16,16a-hexadecahydrospiro[cyclopropa[e]pyrrolo[1,2-a][1,4]diazacyclopentadecine-2,3′-pyrano[2,3-c]quinolin]-6-yl]carbamate] | 0.013 nM | 0.195 nM |  |  |
| CC(C)COC(=O)N[C@H]1CCCCC/C=C\[C@@H]2C[C@@]2(C(=O)NS(=O)(=O)C2(C)CC2)NC(=O)[C@@H]2C[C@]3(CCc4c(c(C5CC5)nc5c(F)cccc45)O3)CN2C1=O [Example 151, 2-methylpropyl [(2R,6S,12Z,13aS,14aR,16aS)-5′-cyclopropyl-7′-fluoro-14a-{[(1-methylcyclopropyl)sulfonyl]carbamoyl}-5,16-dioxo-1,1′,2′,5,6,7,8,9,10,11,13a,14,14a,15,16,16a-hexadecahydrospiro[cyclopropa[e]pyrrolo[1,2-a][1,4]diazacyclopentadecine-2,3′-pyrano[2,3-c]quinolin]-6-yl]carbamate] |  |  | 0.014 nM | 1.77 nM |
